Substitutions are numbered along the chain they refer to.
Experiments:
E-Syt1cyto = molecular target: T1, E-Syt1cyto (Homo sapiens, UniProt Q9BSJ8); assay: FRET dequenching lipid transfer between liposomes; assay type: biochemical; settings: Ca2+ present, His tag on DGS-NTA(Ni) ER-like donor liposomes, PM-like acceptors, pH 7.4; labelled compound
T1 construct: gene ESYT1; cytosolic region, residues 93-1104, N-terminal hairpin region replaced by His tag (pCMV6-AN-His)
T1 sequence (Q9BSJ8 93-1104): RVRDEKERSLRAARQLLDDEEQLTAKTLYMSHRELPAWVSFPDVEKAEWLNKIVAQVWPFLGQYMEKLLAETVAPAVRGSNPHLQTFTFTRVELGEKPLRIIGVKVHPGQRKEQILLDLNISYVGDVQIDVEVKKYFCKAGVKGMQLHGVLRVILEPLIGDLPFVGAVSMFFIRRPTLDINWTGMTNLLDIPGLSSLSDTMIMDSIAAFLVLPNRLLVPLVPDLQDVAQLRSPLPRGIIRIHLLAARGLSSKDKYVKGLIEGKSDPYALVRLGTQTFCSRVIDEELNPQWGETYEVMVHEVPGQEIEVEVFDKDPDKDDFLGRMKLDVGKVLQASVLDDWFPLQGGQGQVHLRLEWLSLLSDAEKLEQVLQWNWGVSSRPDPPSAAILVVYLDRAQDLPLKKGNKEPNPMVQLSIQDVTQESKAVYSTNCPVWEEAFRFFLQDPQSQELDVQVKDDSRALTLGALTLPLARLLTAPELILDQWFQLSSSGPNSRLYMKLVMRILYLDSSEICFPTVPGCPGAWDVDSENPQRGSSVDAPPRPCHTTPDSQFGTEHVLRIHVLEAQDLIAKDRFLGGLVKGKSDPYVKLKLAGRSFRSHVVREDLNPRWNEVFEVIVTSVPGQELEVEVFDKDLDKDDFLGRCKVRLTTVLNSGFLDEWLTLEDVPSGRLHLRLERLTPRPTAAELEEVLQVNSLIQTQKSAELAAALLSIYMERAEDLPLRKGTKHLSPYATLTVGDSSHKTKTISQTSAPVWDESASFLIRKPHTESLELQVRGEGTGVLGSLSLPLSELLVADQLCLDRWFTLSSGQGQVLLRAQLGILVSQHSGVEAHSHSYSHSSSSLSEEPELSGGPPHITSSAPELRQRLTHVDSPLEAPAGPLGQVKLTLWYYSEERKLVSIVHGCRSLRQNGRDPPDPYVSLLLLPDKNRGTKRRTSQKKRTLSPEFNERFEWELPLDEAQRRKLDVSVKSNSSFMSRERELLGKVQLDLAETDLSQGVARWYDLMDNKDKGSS

[1] = molecular target: T2, SMP domain of E-Syt1 (SMP) (Homo sapiens, UniProt Q9BSJ8); assay: FRET dequenching lipid transfer between liposomes; assay type: biochemical; settings: 40-nm sorted ER-like donor and 800-nm PM-like acceptor liposomes, pH 7.4, 37 °C, Ca2+ not needed; Rhodamine-PE co-transferred; labelled compound
T2 construct: gene ESYT1; SMP domain alone, residues 134-327, N-terminal His tag (pET-28a), dimer
T2 sequence (Q9BSJ8 134-327): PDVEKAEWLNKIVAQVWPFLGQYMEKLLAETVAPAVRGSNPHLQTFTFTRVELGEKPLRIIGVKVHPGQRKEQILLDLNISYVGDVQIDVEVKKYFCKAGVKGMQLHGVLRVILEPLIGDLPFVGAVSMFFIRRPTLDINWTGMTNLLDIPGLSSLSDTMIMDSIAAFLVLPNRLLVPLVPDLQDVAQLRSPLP

SMP-C2AB of E-Syt1 [2] = molecular target: T3, SMP-C2AB of E-Syt1 (Homo sapiens, UniProt Q9BSJ8, V169W/L308W); assay: native PAGE, NBD fluorescence of protein band; assay type: binding; settings: protein 40 uM, 4 °C, 1 h; solubilized NBD-PE added in methanol; lipid cavity blocked; labelled compound
T3 construct: gene ESYT1; SMP-C2A-C2B fragment, residues 93-634, His-tagged (pCMV6-AN-His), Expi293 cells, Ni-NTA and gel filtration
T3 sequence (Q9BSJ8 93-634 V169W/L308W): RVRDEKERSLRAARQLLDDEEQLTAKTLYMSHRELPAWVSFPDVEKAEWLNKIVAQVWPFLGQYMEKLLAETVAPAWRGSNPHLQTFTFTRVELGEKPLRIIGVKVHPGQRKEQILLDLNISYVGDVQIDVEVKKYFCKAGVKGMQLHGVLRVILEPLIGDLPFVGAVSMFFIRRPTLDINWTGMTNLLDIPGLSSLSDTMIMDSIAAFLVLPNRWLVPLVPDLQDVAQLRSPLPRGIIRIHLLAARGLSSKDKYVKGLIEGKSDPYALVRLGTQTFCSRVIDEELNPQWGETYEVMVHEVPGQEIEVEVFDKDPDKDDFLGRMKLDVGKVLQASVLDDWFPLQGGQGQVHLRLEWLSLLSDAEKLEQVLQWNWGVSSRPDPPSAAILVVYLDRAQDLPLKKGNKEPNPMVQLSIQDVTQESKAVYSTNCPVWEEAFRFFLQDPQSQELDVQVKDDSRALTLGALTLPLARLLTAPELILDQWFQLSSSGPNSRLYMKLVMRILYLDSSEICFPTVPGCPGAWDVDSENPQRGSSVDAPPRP

SMP-C2AB of E-Syt1 [3] = molecular target: T4, SMP-C2AB of E-Syt1 (Homo sapiens, UniProt Q9BSJ8, K227E); assay: native PAGE, NBD fluorescence of protein band; assay type: binding; settings: protein 40 uM, 4 °C, 1 h; solubilized NBD-PE added in methanol; labelled compound
T4 construct: gene ESYT1; SMP-C2A-C2B fragment, residues 93-634, His-tagged (pCMV6-AN-His), Expi293 cells, Ni-NTA and gel filtration
T4 sequence (Q9BSJ8 93-634 K227E): T3 sequence (Q9BSJ8 93-634 V169W/L308W) with W77V, K135E, W216L

SMP of E-Syt2 = molecular target: T5, SMP of E-Syt2 (Homo sapiens, UniProt A0FGR8); assay: FRET dequenching lipid transfer between liposomes; assay type: biochemical; settings: curved ER-like donor and PM-like acceptor liposomes, pH 7.4; labelled compound
T5 construct: gene ESYT2; SMP domain alone, residues 162-355, His tag (pET-28a), dimer
T5 sequence (A0FGR8 162-355 isoform A0FGR8-2): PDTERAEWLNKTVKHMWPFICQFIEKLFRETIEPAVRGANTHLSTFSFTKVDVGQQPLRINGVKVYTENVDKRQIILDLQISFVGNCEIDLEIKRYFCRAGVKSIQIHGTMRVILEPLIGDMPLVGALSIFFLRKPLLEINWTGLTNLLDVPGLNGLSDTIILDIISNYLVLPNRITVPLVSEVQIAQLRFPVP

full-length E-Syt1 = molecular target: T6, full-length E-Syt1 (Homo sapiens, UniProt Q9BSJ8); assay: FRET dequenching lipid transfer from proteoliposomes; assay type: biochemical; settings: Ca2+ present, 40-nm sorted ER-like proteoliposomes, 800-nm PM-like acceptors, pH 7.4, room temperature; labelled compound
T6 construct: gene ESYT1; full length, residues 1-1104, His-tagged (pCMV6-AN-His), Expi293 cells, detergent-purified, reconstituted in ER-like liposomes
T6 sequence (Q9BSJ8 1-1104): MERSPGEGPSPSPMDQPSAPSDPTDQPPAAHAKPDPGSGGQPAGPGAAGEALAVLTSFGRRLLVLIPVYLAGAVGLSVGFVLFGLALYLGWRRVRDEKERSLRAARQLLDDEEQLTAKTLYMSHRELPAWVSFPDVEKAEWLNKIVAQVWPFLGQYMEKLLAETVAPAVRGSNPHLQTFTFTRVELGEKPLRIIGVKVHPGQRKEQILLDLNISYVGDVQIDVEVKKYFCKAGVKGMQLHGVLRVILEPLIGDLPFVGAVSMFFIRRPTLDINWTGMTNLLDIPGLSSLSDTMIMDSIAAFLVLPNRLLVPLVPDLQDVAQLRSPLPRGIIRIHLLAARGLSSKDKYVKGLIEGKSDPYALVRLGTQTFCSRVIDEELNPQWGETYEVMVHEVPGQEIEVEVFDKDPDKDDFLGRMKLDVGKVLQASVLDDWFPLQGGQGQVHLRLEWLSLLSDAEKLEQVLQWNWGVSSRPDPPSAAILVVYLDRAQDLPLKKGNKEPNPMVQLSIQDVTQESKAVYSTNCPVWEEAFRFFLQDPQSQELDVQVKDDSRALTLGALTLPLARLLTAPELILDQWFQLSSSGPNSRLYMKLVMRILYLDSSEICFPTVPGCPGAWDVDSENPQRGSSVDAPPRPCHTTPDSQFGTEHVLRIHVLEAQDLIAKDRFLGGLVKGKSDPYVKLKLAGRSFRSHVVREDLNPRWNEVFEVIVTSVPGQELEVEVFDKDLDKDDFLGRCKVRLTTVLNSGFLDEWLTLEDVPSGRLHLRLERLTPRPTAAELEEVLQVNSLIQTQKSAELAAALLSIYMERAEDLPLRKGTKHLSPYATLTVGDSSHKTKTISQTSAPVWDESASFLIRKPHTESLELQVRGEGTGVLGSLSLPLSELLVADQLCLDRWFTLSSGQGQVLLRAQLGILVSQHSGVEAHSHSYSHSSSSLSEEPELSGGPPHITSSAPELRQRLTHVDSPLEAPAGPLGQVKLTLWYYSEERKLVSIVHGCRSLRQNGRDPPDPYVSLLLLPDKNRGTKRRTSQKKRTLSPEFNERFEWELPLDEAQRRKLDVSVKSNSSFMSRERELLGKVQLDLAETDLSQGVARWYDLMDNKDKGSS

SMP of E-Syt3 = molecular target: T7, SMP of E-Syt3 (Homo sapiens, UniProt A0FGR9); assay: FRET dequenching lipid transfer between liposomes; assay type: biochemical; settings: curved ER-like donor and PM-like acceptor liposomes, pH 7.4; labelled compound
T7 construct: gene ESYT3; SMP domain alone, residues 113-304, His tag (pET-28a); full-length protein 886 residues
T7 sequence (A0FGR9 113-304): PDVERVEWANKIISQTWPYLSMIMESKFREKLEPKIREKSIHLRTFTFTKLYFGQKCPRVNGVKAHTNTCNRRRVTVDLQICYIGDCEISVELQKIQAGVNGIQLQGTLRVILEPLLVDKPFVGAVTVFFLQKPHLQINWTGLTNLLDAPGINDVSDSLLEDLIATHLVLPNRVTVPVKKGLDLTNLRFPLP

SMP-C2AB of E-Syt1 [4] = molecular target: T8, SMP-C2AB of E-Syt1 (Homo sapiens, UniProt Q9BSJ8); assay: native PAGE, NBD fluorescence of protein band; assay type: binding; settings: protein 40 uM, 4 °C, 1 h; solubilized NBD-PE added in methanol; labelled compound
T8 construct: gene ESYT1; SMP-C2A-C2B fragment, residues 93-634, His-tagged (pCMV6-AN-His), Expi293 cells, Ni-NTA and gel filtration
T8 sequence (Q9BSJ8 93-634): T3 sequence (Q9BSJ8 93-634 V169W/L308W) with W77V, W216L

Q: `CCCCCCCC/C=C\CCCCCCCC(=O)OC[C@H](COP(=O)(O)OCCNc1ccc([N+](=O)[O-])c2nonc12)OC(=O)CCCCCCC/C=C\CCCCCCCC` [NBD-PE, 1,2-dioleoyl-sn-glycero-3-phosphoethanolamine-N-(7-nitro-2-1,3-benzoxadiazol-4-yl)] was tested. Which “FRET dequenching lipid transfer between liposomes” value (E-Syt1cyto) did it give?
A: Its value is “purified His-tagged E-Syt1cyto had comparable lipid transfer and membrane tethering levels as full-length E-Syt1”.

Q: What about the “FRET dequenching lipid transfer between liposomes” value [1] of the same compound?
A: Its value is 40-nm sorted ER-like liposomes produced a robust lipid transfer level.

Q: And the “native PAGE, NBD fluorescence of protein band” value (“native PAGE, NBD fluorescence” for short) (SMP-C2AB of E-Syt1 [2])?
A: The value was “block the hydrophobic cavity of the SMP domain (V169W/L308W) impaired lipid harboring”.

Q: And the “native PAGE, NBD fluorescence” value (SMP-C2AB of E-Syt1 [3])?
A: Its value is “NBD-PE was loaded onto purified WT protein and K227E mutant at a similar level”.

Q: What about the “FRET dequenching lipid transfer between liposomes” value (SMP of E-Syt2) of the same compound?
A: Its value is “SMP domains of E-Syt2 and E-Syt3 showed similar membrane curvature- and charge-facilitated lipid transfer”.

Q: And the “FRET dequenching lipid transfer from proteoliposomes” value (full-length E-Syt1)?
A: The value was 40-nm sorted ER-like proteoliposomes dramatically accelerated the lipid transfer by E-Syt1.

Q: And the “FRET dequenching lipid transfer between liposomes” value (SMP of E-Syt3)?
A: The value was “SMP domains of E-Syt2 and E-Syt3 showed similar membrane curvature- and charge-facilitated lipid transfer”.

Q: What about the “native PAGE, NBD fluorescence” value (SMP-C2AB of E-Syt1 [4]) of the same compound?
A: The value was “solubilized NBD-PE was loaded onto purified WT protein and K227E mutant”.

— article PMC10023780, “Insights into membrane association of the SMP domain of extended synaptotagmin” (Nature Communications, 2023)
